Where two headings read alike, the source gives them in different places.
Assays:
[1] = tested on: T47D cells; assay: Cellular growth inhibition assay for T47D cells (CellTiter-Glo, 72 hours); type: cell-based, human; conditions: 72 hours treatment
How it was run: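 Cells are plated at 3000/well and allowed 24 h before treatment. Test compound in medium containing 0.5% DMSO is then added, with DMSO-only wells as negative control, and plates are incubated 72 h at 37 °C. ATP luminescence (CellTiter-Glo 2.0) is then fitted to four parameters to derive GI50.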

[2] = tested on: VCaP cells; assay: Cellular growth inhibition assay for VCaP cells (CellTiter-Glo, 72 hours); type: cell-based, human
How it was run: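 Luminescent viability signal after 72 h of compound exposure gave GI50 values by four-parameter nonlinear regression. Compounds were added in 0.5% DMSO to cells plated 24 h earlier at 5000/well in DMEM containing 10% FBS.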

[3] = tested on: T-Rex 293 cell line SC3 cells lacking increased expression of androgen receptor protein; assay: Cellular growth inhibition assay, T-Rex 293 SC3 cells without doxycycline (CellTiter-Glo, 72 hours); type: cell-based; conditions: T-Rex 293 cell line SC3 cells not exposed to doxycycline (lacking increased androgen receptor expression)
How it was run: (§1)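 Doxycycline (10 ng/mL) was either included or omitted to toggle wild-type androgen receptor expression in SC3 cells, a T-Rex 293 clone, grown in stripped-serum, phenol red-free medium. After 72 hours with compound, viable cells were quantified by CellTiter-Glo 2.0.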

[4] = tested on: T-Rex 293 cell line SC3 cells having increased expression of androgen receptor protein due to exposure to doxycycline; assay: Cellular growth inhibition assay, T-Rex 293 SC3 cells with doxycycline (CellTiter-Glo, 72 hours); type: cell-based; conditions: T-Rex 293 SC3 cells with increased androgen receptor expression due to doxycycline (10 ng/mL)
How it was run: as §1

| SMILES | GI50 ([1]; Homo sapiens, T47D, 72 h) [nM] | GI50 ([2]; Homo sapiens, VCaP, 72 h) [nM] | GI50 ([3]; 72 h) [nM] | GI50 ([4]; 72 h) [nM] | GI50 [1] [nM] | GI50 [2] [nM] | GI50 [3] [nM] | GI50 [4] [nM] |
| --- | --- | --- | --- | --- | --- | --- | --- | --- |
| Cc1sc2c(c1C)C(c1ccc(OC[C@H]3C[C@@]4(CCCN(c5ccc(C(=O)N[C@H]6CC[C@H](Oc7ccc(C#N)c(Cl)c7)CC6)nn5)C4)C3)cc1)=N[C@@H](C)c1nnc(C)n1-2 [I-310] | 500 to 1500 | < 500 | > 3000 | < 500 | – | – | – | – |
| Cc1sc2c(c1C)C(c1ccc(C#CC3CC4(C3)CN(c3ccc(C(=O)N[C@H]5CC[C@H](Oc6ccc(C#N)c(Cl)c6)CC5)nn3)C4)cc1)=N[C@@H](C)c1nnc(C)n1-2 [I-311] | < 500 | < 500 | < 500 | < 500 | – | – | – | – |
| Cc1sc2c(c1C)C(c1ccc(N(C)CC(=O)N3CCC(c4ccc(C(=O)N[C@H]5CC[C@H](Oc6ccc(C#N)c(Cl)c6)CC5)nn4)CC3)cc1)=N[C@@H](Cc1ncco1)c1nnc(C)n1-2 [I-312] | > 3000 | > 3000 | > 3000 | > 3000 | – | – | – | – |
| Cc1sc2c(c1C)C(c1ccc(N(C)CC(=O)N3CCC(c4ccc(C(=O)N[C@H]5CC[C@H](Oc6ccc(C#N)c(Cl)c6)CC5)nn4)CC3)cc1)=N[C@H](Cc1ncco1)c1nnc(C)n1-2 [I-313] | 500 to 1500 | < 500 | > 3000 | < 500 | – | – | – | – |
| Cc1sc2c(c1C)C(c1ccc(C(=O)N3CCN(CCc4ccc(C(=O)N[C@H]5CC[C@H](Oc6ccc(C#N)c(Cl)c6)CC5)nn4)CC3)cc1)=N[C@H](Cc1ncco1)c1nnc(C)n1-2 [I-314] | 1500 to 3000 | 500 to 1500 | > 3000 | 500 to 1500 | – | – | – | – |
| Cc1sc2c(c1C)C(c1ccc(CN(C)C(=O)[C@@H]3CC[C@H](c4ccc(C(=O)N[C@H]5CC[C@H](Oc6ccc(C#N)c(Cl)c6)CC5)nn4)C3)cc1)=N[C@@H](Cc1ncco1)c1nnc(C)n1-2 [I-315] | 500 to 1500 | < 500 | > 3000 | < 500 | – | – | – | – |
| Cc1sc2c(c1C)C(c1ccc(CN(C)C(=O)[C@@H]3CC[C@@H](c4ccc(C(=O)N[C@H]5CC[C@H](Oc6ccc(C#N)c(Cl)c6)CC5)nn4)C3)cc1)=N[C@@H](Cc1ncco1)c1nnc(C)n1-2 [I-316] | 1500 to 3000 | < 500 | > 3000 | < 500 | – | – | – | – |
| Cc1sc2c(c1C)C(c1ccc(CC(=O)NCCc3ccc(C(=O)N[C@H]4CC[C@H](Oc5ccc(C#N)c(Cl)c5)CC4)nn3)cc1)=N[C@@H](Cc1ncco1)c1nnc(C)n1-2 [I-317] | < 500 | < 500 | 500 to 1500 | < 500 | – | – | – | – |
| Cc1sc2c(c1C)C(c1ccc(CN(C)C(=O)NCc3ccc(C(=O)N[C@H]4CC[C@H](Oc5ccc(C#N)c(Cl)c5)CC4)nn3)cc1)=N[C@@H](Cc1ncco1)c1nnc(C)n1-2 [I-318] | > 3000 | < 500 | > 3000 | < 500 | – | – | – | – |
| Cc1sc2c(c1C)C(c1ccc(CC(=O)N3CCN(c4ccc(C(=O)N[C@H]5CC[C@H](Oc6ccc(C#N)c(Cl)c6)CC5)nn4)CC3)cc1)=N[C@@H](Cc1ncco1)c1nnc(C)n1-2 [I-319] | < 500 | < 500 | > 3000 | < 500 | – | – | – | – |
| Cc1sc2c(c1C)C(c1ccc(C(=O)N(C)CCCc3ccc(C(=O)N[C@H]4CC[C@H](Oc5ccc(C#N)c(Cl)c5)CC4)nn3)cc1)=N[C@@H](Cc1ncco1)c1nnc(C)n1-2 [I-320] | > 3000 | > 3000 | > 3000 | > 3000 | – | – | – | – |
| Cc1sc2c(c1C)C(c1ccc(C(=O)N(C)CCCc3ccc(C(=O)N[C@H]4CC[C@H](Oc5ccc(C#N)c(Cl)c5)CC4)nn3)cc1)=N[C@H](Cc1ncco1)c1nnc(C)n1-2 [I-321] | 1500 to 3000 | < 500 | > 3000 | < 500 | – | – | – | – |
| Cc1sc2c(c1C)C(c1ccc(C#CC3CC4(C3)CN(c3ccc(C(=O)N[C@H]5CC[C@H](Oc6ccc(C#N)c(Cl)c6)CC5)nn3)C4)nc1)=N[C@H](Cc1ncco1)c1nnc(C)n1-2 [I-322] | < 500 | < 500 | < 500 | < 500 | – | – | – | – |
| Cc1sc2c(c1C)C(c1ccc(CCC[C@H]3CCCN(c4ccc(C(=O)N[C@H]5CC[C@H](Oc6ccc(C#N)c(Cl)c6)CC5)nn4)C3)cc1)=N[C@@H](C)c1nnc(C)n1-2 [I-323] | 500 to 1500 | < 500 | 500 to 1500 | < 500 | – | – | – | – |
| Cc1sc2c(c1C)C(c1ccc(CCO[C@@H]3CCCN(c4ccc(C(=O)N[C@H]5CC[C@H](Oc6ccc(C#N)c(Cl)c6)CC5)nn4)C3)cc1)=N[C@@H](C)c1nnc(C)n1-2 [I-324] | 1500 to 3000 | > 3000 | > 3000 | < 500 | – | – | – | – |
| Cc1sc2c(c1C)C(c1ccc(CCO[C@H]3CCCN(c4ccc(C(=O)N[C@H]5CC[C@H](Oc6ccc(C#N)c(Cl)c6)CC5)nn4)C3)cc1)=N[C@@H](C)c1nnc(C)n1-2 [I-325] | 1500 to 3000 | 1500 to 3000 | > 3000 | < 500 | – | – | – | – |
| Cc1sc2c(c1C)C(c1ccc(CC[C@H]3C[C@@]4(CCCN(c5ccc(C(=O)N[C@H]6CC[C@H](Oc7ccc(C#N)c(Cl)c7)CC6)nn5)C4)C3)cc1)=N[C@@H](C)c1nnc(C)n1-2 [I-326] | – | – | – | – | < 500 | < 500 | > 3000 | < 500 |
| Cc1sc2c(c1C)C(c1ccc(CC[C@H]3C[C@]4(CCCN(c5ccc(C(=O)N[C@H]6CC[C@H](Oc7ccc(C#N)c(Cl)c7)CC6)nn5)C4)C3)cc1)=N[C@@H](C)c1nnc(C)n1-2 [I-327] | – | – | – | – | 1500 to 3000 | > 3000 | > 3000 | < 500 |
| Cc1sc2c(c1C)C(c1ccc(OC[C@H]3CC[C@@]4(CCCN(c5ccc(C(=O)N[C@H]6CC[C@H](Oc7ccc(C#N)c(Cl)c7)CC6)nn5)C4)C3)nc1)=N[C@@H](Cc1ncco1)c1nnc(C)n1-2 [I-328] | 500 to 1500 | < 500 | < 500 | < 500 | – | – | – | – |
| Cc1sc2c(c1C)C(c1ccc(OC[C@H]3CC[C@]4(CCCN(c5ccc(C(=O)N[C@H]6CC[C@H](Oc7ccc(C#N)c(Cl)c7)CC6)nn5)C4)C3)nc1)=N[C@@H](Cc1ncco1)c1nnc(C)n1-2 [I-329] | > 3000 | < 500 | > 3000 | < 500 | – | – | – | – |
| Cc1sc2c(c1C)C(c1ccc(OC[C@@H]3CC[C@@]4(CCCN(c5ccc(C(=O)N[C@H]6CC[C@H](Oc7ccc(C#N)c(Cl)c7)CC6)nn5)C4)C3)nc1)=N[C@@H](Cc1ncco1)c1nnc(C)n1-2 [I-330] | > 3000 | < 500 | > 3000 | < 500 | – | – | – | – |
| Cc1sc2c(c1C)C(c1ccc(CC(=O)N3CCC(c4ccc(C(=O)N[C@H]5CC[C@H](Oc6ccc(C#N)c(Cl)c6)CC5)nn4)CC3)cc1)=N[C@H](Cc1ncco1)c1nnc(C)n1-2 [I-331] | 1500 to 3000 | < 500 | > 3000 | > 3000 | – | – | – | – |
| Cc1sc2c(c1C)C(c1ccc(N(C)CC(=O)NCc3ccc(C(=O)N[C@H]4CC[C@H](Oc5ccc(C#N)c(Cl)c5)CC4)nn3)cc1)=N[C@@H](Cc1ncco1)c1nnc(C)n1-2 [I-332] | > 3000 | > 3000 | > 3000 | > 3000 | – | – | – | – |
| Cc1sc2c(c1C)C(c1ccc(N(C)CC(=O)NCc3ccc(C(=O)N[C@H]4CC[C@H](Oc5ccc(C#N)c(Cl)c5)CC4)nn3)cc1)=N[C@H](Cc1ncco1)c1nnc(C)n1-2 [I-333] | 500 to 1500 | < 500 | > 3000 | > 3000 | – | – | – | – |
| Cc1sc2c(c1C)C(c1ccc(OC3CC4(CCN(c5ccc(C(=O)N[C@H]6CC[C@H](Oc7ccc(C#N)c(Cl)c7)CC6)nn5)CC4)C3)cc1)=N[C@@H](C)c1nnc(C)n1-2 [I-334] | < 500 | < 500 | 500 to 1500 | < 500 | – | – | – | – |
| Cc1sc2c(c1C)C(c1ccc(CC3CC4(CCN(c5ccc(C(=O)N[C@H]6CC[C@H](Oc7ccc(C#N)c(Cl)c7)CC6)nn5)CC4)C3)cc1)=N[C@@H](C)c1nnc(C)n1-2 [I-335] | < 500 | < 500 | > 3000 | < 500 | – | – | – | – |
